# Laboratory results reported in ChEMBL document CHEMBL1153181, “SAR of N-phenyl piperidine based oral integrin alpha5beta1 antagonists” (Bioorg Med Chem Lett, 2010).
# Experiments:
# Integrin alpha-5/beta-1 [1] = molecular target: T1, Integrin alpha-5/beta-1 (Homo sapiens, UniProt P05556+P08648); test: Inhibition of integrin alpha5beta1 receptor by ELISA; type: protein-complex assay
# Integrin alpha-V/beta-3 = Integrin alpha-V/beta-3 (Homo sapiens, UniProt P05106+P06756); test: Inhibition of integrin […] receptor by ELISA; type: protein-complex assay
# Chain of Integrin alpha-V/beta-3 (P05106 27-788 limits assumed): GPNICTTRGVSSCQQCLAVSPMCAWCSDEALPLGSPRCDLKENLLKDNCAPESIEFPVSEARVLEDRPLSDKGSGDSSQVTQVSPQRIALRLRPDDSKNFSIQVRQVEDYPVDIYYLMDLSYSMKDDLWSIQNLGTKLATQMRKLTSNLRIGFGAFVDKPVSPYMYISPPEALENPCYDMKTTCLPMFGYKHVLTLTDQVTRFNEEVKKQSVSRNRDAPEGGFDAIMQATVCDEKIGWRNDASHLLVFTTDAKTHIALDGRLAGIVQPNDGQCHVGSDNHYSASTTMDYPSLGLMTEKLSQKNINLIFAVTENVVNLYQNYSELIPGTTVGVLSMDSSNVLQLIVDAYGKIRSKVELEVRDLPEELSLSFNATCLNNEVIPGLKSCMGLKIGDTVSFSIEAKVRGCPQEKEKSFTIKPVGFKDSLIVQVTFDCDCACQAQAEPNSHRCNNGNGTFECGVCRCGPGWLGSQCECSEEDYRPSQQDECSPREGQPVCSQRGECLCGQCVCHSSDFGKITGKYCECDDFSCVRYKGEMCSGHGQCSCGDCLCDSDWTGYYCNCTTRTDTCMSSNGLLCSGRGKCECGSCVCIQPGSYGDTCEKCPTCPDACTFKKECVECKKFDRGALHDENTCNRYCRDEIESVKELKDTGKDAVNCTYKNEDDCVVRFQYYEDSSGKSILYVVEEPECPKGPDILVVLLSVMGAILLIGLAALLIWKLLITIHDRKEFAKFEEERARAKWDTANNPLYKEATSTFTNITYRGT
# Chain of Integrin alpha-V/beta-3 (P06756 31-889 limits assumed): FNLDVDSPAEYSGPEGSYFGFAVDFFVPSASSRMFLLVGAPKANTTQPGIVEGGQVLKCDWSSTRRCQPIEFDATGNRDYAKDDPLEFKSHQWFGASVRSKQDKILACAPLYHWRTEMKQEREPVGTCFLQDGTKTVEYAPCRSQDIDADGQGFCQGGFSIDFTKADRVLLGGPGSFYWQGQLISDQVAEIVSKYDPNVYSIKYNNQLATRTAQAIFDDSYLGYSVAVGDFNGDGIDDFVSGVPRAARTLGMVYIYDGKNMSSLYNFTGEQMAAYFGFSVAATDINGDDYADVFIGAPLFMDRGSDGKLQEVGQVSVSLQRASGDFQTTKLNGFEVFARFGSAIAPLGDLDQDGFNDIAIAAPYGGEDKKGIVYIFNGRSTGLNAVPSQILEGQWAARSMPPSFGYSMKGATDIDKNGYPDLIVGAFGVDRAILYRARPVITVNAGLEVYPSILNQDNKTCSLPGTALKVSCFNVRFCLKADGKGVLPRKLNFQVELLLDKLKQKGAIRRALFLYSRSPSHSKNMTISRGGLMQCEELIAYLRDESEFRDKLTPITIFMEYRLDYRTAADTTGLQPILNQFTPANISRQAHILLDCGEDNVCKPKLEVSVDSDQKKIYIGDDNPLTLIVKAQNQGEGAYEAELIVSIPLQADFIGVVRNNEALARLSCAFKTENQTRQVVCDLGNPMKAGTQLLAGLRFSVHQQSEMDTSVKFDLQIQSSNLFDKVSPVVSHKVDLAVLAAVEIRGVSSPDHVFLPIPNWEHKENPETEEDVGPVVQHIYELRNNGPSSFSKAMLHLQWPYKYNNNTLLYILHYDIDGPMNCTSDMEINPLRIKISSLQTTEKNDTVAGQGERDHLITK
# Chain of Integrin alpha-V/beta-3 (P06756 891-1048 limits assumed): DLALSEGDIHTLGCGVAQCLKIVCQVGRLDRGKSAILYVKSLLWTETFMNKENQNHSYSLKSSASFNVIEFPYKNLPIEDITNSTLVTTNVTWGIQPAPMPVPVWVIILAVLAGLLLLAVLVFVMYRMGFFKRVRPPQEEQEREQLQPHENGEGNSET
# Integrin alpha-V/beta-5 = Integrin alpha-V/beta-5 (Homo sapiens, UniProt P06756+P18084); test: Inhibition of integrin […] receptor by ELISA; type: protein-complex assay
# Chain of Integrin alpha-V/beta-5 (P06756 31-889 limits assumed): as the sequence (P06756 31-889 limits assumed) above
# Chain of Integrin alpha-V/beta-5 (P06756 891-1048 limits assumed): as the sequence (P06756 891-1048 limits assumed) above
# Chain of Integrin alpha-V/beta-5 (P18084 24-799 limits assumed): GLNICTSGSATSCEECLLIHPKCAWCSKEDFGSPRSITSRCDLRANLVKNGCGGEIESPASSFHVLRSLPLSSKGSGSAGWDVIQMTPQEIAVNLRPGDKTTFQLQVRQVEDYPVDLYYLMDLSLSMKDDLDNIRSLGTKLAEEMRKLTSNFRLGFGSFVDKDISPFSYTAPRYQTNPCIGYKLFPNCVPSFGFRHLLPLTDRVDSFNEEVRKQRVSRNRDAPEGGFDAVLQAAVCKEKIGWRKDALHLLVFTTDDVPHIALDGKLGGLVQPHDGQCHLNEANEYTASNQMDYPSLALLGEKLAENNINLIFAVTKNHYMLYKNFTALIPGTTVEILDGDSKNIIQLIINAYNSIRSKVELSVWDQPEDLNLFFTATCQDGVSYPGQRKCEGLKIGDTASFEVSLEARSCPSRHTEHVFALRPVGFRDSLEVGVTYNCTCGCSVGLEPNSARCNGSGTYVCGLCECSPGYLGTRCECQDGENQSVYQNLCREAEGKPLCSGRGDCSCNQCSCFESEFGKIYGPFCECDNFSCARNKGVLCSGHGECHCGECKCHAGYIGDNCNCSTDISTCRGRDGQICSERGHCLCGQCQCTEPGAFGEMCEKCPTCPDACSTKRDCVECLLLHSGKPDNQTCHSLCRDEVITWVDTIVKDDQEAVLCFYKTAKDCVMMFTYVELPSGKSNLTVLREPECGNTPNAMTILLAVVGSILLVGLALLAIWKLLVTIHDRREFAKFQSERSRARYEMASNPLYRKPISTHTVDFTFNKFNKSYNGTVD
# [2] = molecular target: Integrin alpha-IIb/beta-3 (Homo sapiens, UniProt P05106+P08514); test: Inhibition of integrin alpha2bbeta3 receptor by ELISA; type: protein-complex assay
# [3] = Metabolic stability in human microsomes assessed as compound remaining at 1 uM after 1 hr; type: ADME, Microsome; conditions: read-out: Stability
# Integrin alpha-5/beta-1 [4] = molecular target: T1, Integrin alpha-5/beta-1; test: Inhibition of integrin alpha5beta1 receptor-mediated HEK293 cell adhesion; type: cell-based
# [5] = Dissociation constant, pKa of the compound; type: physicochemical
# [6] = Metabolic stability in rat microsomes assessed as compound remaining at 1 uM after 1 hr; type: ADME, Microsome; conditions: read-out: Stability
# [7] = Total body clearance in rat at 1 mg/kg, iv; type: ADME, organism-based; design: dose 1 mg/kg, route intravenous; conditions: in vivo
# [8] = Oral bioavailability in rat at 10 mg/kg, po; type: ADME, organism-based; conditions: in vivo
# [9] = Systemic clearance in Beagle dog at 10 mg/kg, iv administered as bolus dose; type: ADME, organism-based, Canis lupus familiaris; design: dose 10 mg/kg, route intravenous; conditions: in vivo
# Canis familiaris = test: Hepatic blood flow in Beagle dog at 10 mg/kg, iv administered as bolus dose; type: ADME, organism-based, Canis lupus familiaris, Liver; design: dose 10 mg/kg, route intravenous; conditions: in vivo
# [10] = Elimination half life in Beagle dog at 10 mg/kg, iv administered as bolus dose; type: ADME, organism-based, Canis lupus familiaris; design: dose 10 mg/kg, route intravenous; conditions: in vivo, read-out: beta t1/2
# [11] = Oral bioavailability in Beagle dog at 10 mg/kg administered as bolus dose; type: ADME, organism-based, Canis lupus familiaris; conditions: in vivo
# T1 sequence (P05556 21-798 limits assumed): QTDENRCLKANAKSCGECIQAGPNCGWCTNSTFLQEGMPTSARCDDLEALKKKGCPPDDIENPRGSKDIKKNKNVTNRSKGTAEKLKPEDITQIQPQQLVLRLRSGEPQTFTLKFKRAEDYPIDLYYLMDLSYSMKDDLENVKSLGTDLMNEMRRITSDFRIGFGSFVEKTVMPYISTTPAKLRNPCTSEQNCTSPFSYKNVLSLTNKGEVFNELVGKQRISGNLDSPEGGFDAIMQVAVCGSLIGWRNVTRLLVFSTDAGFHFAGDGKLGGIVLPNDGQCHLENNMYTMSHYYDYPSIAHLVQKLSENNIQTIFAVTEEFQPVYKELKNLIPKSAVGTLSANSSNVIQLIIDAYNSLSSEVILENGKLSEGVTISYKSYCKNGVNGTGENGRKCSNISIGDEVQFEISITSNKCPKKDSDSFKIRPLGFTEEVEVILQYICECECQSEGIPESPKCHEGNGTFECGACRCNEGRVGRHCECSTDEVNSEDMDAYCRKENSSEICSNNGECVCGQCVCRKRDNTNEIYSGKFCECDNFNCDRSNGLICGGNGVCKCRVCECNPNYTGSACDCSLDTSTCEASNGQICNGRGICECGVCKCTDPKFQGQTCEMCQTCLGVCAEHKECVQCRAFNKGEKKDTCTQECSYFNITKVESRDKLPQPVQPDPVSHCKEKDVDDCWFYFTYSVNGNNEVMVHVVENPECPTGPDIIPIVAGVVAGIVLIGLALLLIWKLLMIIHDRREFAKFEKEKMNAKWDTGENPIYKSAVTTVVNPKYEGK
# T1 sequence (P08648 42-894 limits assumed): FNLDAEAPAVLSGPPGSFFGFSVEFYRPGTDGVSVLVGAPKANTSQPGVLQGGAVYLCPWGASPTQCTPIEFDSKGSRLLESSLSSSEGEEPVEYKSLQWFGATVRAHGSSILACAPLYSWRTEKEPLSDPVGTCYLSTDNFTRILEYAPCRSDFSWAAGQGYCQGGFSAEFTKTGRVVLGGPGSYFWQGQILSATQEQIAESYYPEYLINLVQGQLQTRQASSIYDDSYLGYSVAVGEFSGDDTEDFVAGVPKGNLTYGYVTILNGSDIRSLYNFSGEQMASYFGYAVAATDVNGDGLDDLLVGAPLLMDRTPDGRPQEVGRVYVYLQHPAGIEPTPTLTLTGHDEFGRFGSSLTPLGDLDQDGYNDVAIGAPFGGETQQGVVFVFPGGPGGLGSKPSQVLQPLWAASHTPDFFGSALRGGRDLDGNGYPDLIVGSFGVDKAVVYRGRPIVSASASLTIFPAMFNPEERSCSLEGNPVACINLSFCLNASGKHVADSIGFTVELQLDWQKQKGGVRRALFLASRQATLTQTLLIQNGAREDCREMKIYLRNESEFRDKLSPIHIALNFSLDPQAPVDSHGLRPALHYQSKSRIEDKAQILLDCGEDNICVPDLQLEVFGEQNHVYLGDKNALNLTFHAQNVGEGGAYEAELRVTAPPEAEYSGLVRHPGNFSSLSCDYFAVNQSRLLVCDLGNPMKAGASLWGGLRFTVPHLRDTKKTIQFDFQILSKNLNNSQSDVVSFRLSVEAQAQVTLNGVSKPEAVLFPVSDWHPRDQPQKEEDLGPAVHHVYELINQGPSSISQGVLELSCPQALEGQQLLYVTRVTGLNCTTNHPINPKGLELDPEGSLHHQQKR
# T1 sequence (P08648 895-1049 limits assumed): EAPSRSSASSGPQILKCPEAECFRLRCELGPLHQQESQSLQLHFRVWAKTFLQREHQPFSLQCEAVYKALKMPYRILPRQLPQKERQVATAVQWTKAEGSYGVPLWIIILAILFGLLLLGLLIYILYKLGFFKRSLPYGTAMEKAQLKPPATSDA
Structure (SMILES),IC50 (Integrin alpha-5/beta-1 [1]),IC50 (Integrin alpha-V/beta-3),IC50 (Integrin alpha-V/beta-5),IC50 [2],"remaining at 1 h, 1 µM [3]",IC50 (Integrin alpha-5/beta-1 [4]),pKa [5],"remaining at 1 h, 1 µM [6]",clearance [7],bioavailability [8],clearance [9],LBF (Canis familiaris),half-life [10],bioavailability [11]
O=C(O)[C@H](Cc1ccc(N2CCC(CNc3ccccn3)CC2)cc1)N1Cc2ccccc2C1=O,234 nM,13.4 nM,3320 nM,76700 nM,,,,,,,,,,
O=C(N[C@@H](Cc1ccc(N2CCC(CNc3ccccn3)CC2)cc1)C(=O)O)c1ccccc1,70 nM,4.3 nM,32.1 nM,14800 nM,,,,,,,,,,
Cc1ccnc(NCC2CCN(c3ccc(CC(NC(=O)c4c(C)cc(C)cc4C)C(=O)O)cc3)CC2)c1 (stereo not given),,,10700 nM,23400 nM,,69 nM,7.5,77%,,,,,,
Cc1cc(F)cc(C)c1C(=O)NC(Cc1ccc(N2CCC(CNc3ccccn3)CC2)cc1)C(=O)O (stereo not given),2.7 nM,402 nM,8290 nM,105000 nM,69%,,,,,,,,,
Cc1cc(C)c(C(=O)NC(Cc2ccc(N3CCC(CNc4ccccn4)CC3)cc2)C(=O)O)c(C)c1 (stereo not given),2.1 nM,642 nM,15000 nM,40200 nM,,198 nM,7,85%,16 mL/min/kg,24%,,,,
COc1ccnc(NCC2CCN(c3ccc(CC(NC(=O)c4c(C)cc(C)cc4C)C(=O)O)cc3)CC2)c1 (stereo not given),0.92 nM,89 nM,3540 nM,,,34 nM,7.7,62%,110 mL/min/kg,6%,,,,

# Second part, the molecule after the results:
IC50 (Integrin alpha-5/beta-1 [1]),IC50 (Integrin alpha-V/beta-3),IC50 (Integrin alpha-V/beta-5),IC50 [2],"remaining at 1 h, 1 µM [3]",IC50 (Integrin alpha-5/beta-1 [4]),pKa [5],"remaining at 1 h, 1 µM [6]",clearance [7],bioavailability [8],clearance [9],LBF (Canis familiaris),half-life [10],bioavailability [11],Structure (SMILES)
1.6 nM,239 nM,1870 nM,77700 nM,59%,,,,,,,,,,Cc1cccc(C)c1C(=O)NC(Cc1ccc(N2CCC(CNc3ccccn3)CC2)cc1)C(=O)O (stereo not given)
2.2 nM,648 nM,11500 nM,87200 nM,52%,,,,,,,,,,CCc1cccc(C)c1C(=O)NC(Cc1ccc(N2CCC(CNc3ccccn3)CC2)cc1)C(=O)O (stereo not given)
351 nM,16600 nM,15600 nM,159000 nM,,6910 nM,,,,,,,,,CCc1cc(F)cc(C)c1C(=O)N[C@H](Cc1ccc(N2CCC(CNc3ccccn3)CC2)cc1)C(=O)O
2 nM,1050 nM,11700 nM,71700 nM,105%,76 nM,,,,,,,,,CCc1cc(F)cc(C)c1C(=O)NC(Cc1ccc(N2CCC(CNc3ccccn3)CC2)cc1)C(=O)O (stereo not given)
0.9 nM,614 nM,12400 nM,121000 nM,,21 nM,,,,,11 mL/min/kg,37%,3.58 h,11%,CCc1cc(F)cc(C)c1C(=O)N[C@@H](Cc1ccc(N2CCC(CNc3ccccn3)CC2)cc1)C(=O)O
